# In US12410164B2, “Heterocyclic compounds and medical use thereof” (FONDAZIONE TELETHON, priority 2018, dated 2025):
# Test system: G542X-CFTR
# Test: HS-YFP assay in null CFBE41o− cells transfected with G542X-CFTR
# Format: cell-based
# Description: To assess the function and pharmacological sensitivity of G542X-CFTR mutant, inventors used the null version of CFBE41o− cells, i.e. cells with negligible expression of endogenous CFTR and without HS-YFP. Such cells were transiently transfected with the plasmid coding for HS-YFP alone or in combination with: empty plasmid, plasmid coding for wild type CFTR, or plasmid coding for G542X-CFTR. For transfection, cells were seeded in 96-well microplates (30,000 cells/well) in 150 μl of antibiotic-free culture medium. After 24 hours, cells were transfected with the desired plasmids. For each well, 0.2 μg of total plasmid DNA and 0.5 μl of Lipofectamine 2000 (Invitrogen) were first pre-mixed in 50 μl of OPTIMEM (Invitrogen) to generate transfection complexes (60 minutes at room temperature), and then added to the cells. After 24 hour, the complexes were removed by replacement with fresh culture medium. The HS-YFP functional assay was performed after further 24 hours.
# To assess the ability of compounds of present invention to improve the rescue of premature stop codon (class I) mutations, we carried out experiments on G542X-CFTR (FIG. 7). Null CFBE41o− cells, devoid of endogenous CFTR expression, were transiently transfected with empty, wild type CFTR or G542X-CFTR plasmids. All cells also received the HS-YFP plasmid to allow functional determination of CFTR-dependent anion transport. […] Where indicated, cells with G542X-CFTR were also treated with G418 (0.5 mg/ml) for 24 hr to induce readthrough of the stop codon mutation, with and without correctors (VX-809 and/or PP028, labeled as VX and PP). […] The activity resulting from wild type CFTR is also shown for comparison.
smiles,measurement,setting,value
"CCOC(=O)c1c(Br)c2c(n1Cc1cccc(C)c1)-c1[nH]c(=O)c(S(=O)(=O)c3ccccc3)cc1CC2 [PP028, Ethyl 3-bromo 1-(3-methylbenzyl)-8-oxo-7-(phenylsulfonyl)-4,5,8,9-tetrahydro-1H-pyrrolo[3,2-h]quinoline-2-carboxylate]",CFTR activity (QR) in G542X-CFTR cells versus G418 alone,G418 0.5 mg/ml plus VX-809 1 μM or PP028 10 μM,further increased activity
same,comparison of co-treatments with G418 in G542X-CFTR cells,"PP028 10 μM versus VX-809 1 μM, each plus G418",significantly more effective than VX-809
